According to patent publication US20040063763A1, “2-METHOXYIMINO-2(PYRIDINYLOXYMETHYL)PHENYL ACETAMIDES USEFUL AS FUNGICIDES” (priority 2003, published 2004):

Assays:
Type in all cases: in vivo
Phytophthora infestans = details: 100 ppm spray to run off, tomatoes (cultivar Rutgers), inoculated after 24 hours
Puccinia recondita = test: Brown rust of wheat 1-day protectant whole plant test (PUCCRT 1DP); details: 100 ppm spray to run off, wheat (cultivar Monon), inoculated after 24 hours
Erysiphe graminis = test: Powdery Mildew of Wheat 1-day protectant whole plant test (ERYSGT 1DP); details: 100 ppm spray to run off, wheat (cultivar Monon), inoculated after 24 hours

CNC(=O)/C(=N/OC)c1ccccc1COc1ncc(C2=NOCC2)cc1C [Compound 1, (2E)-2-[2˜({[5-(4,5-dihydroisoxazol-3-yl)-3-methylpyridin-2-yl]oxy}methyl)phenyl]-2-(methoxyimino)-N-methylethanamide]
>95%: PHYTIN 1DP percent control of the plant disease (Phytophthora infestans) | PUCCRT 1DP percent control of the plant disease (Puccinia recondita) | ERYSGT 1DP percent control of the plant disease (Erysiphe graminis)
